According to publication PMC6934184, “Selective DNA-PKcs inhibition extends the therapeutic index of localized radiotherapy and chemotherapy” (The Journal of Clinical Investigation, 2019):

Target: T1, IRAK1 (Homo sapiens, UniProt P51617)
T1 construct: purchased Thermo Fisher Scientific (Life Technologies) SelectScreen
Assay: SelectScreen Adapta
Format: biochemical
Procedure, shortened: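 NU5455 was profiled across the SelectScreen Broad panel of kinase activity and binding assays. Z'LYTE reactions such as CSF1R ran at apparent Km ATP, while the Adapta CAMK1 assay used ATP listed as 10. Values are given as percent.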

T1 sequence (P51617 whole entry): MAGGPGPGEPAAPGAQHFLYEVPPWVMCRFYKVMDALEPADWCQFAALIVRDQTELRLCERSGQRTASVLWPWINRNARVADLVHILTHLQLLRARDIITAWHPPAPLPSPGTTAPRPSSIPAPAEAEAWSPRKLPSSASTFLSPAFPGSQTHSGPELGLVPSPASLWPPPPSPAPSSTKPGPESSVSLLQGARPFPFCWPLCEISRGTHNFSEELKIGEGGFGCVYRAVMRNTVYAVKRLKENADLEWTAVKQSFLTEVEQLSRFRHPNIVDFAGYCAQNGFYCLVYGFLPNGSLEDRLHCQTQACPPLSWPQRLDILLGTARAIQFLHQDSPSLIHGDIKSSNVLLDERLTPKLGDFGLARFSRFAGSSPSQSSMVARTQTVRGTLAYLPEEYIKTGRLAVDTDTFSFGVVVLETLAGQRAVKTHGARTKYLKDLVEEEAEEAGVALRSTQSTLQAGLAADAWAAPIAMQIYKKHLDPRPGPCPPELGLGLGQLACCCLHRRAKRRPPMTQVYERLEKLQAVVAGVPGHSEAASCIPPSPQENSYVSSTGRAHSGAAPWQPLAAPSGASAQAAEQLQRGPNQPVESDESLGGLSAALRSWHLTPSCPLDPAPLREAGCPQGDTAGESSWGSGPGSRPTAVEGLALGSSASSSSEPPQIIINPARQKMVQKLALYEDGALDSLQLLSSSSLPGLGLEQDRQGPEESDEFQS

`CN(C(=O)CN1CCOCC1)c1ccc2sc3c(-c4cccc5c(=O)cc(N6CC7CCC(C6)O7)oc45)cccc3c2c1` [NU5455] gave an inhibition at 1 µM of 4%.
